Source: patent publication US20090306074A1, “THIAZOLIDINEDIONE DERIVATIVES AS P13 KINASE INHIBITORS” (priority 2006, published 2009)
Like-named read-outs stand apart in the source and are kept apart here.

Legend:
Class I PI3-kinases = details: cited from earlier work
CK2 protein kinase = CK2 protein kinase (Homo sapiens, UniProt P68400); details: cited from earlier work
PI3Kα = target: T1, PI3Kα (Homo sapiens, UniProt P42336); test: PI3K Alpha Leadseeker SPA Assay; assay type: biochemical; details: His-p110/p85 PI3K alpha, P33-ATP, PEI-PS Leadseeker beads; read-out: IC50 against PI3Kα
T1 construct: His
T1 sequence (P42336 whole entry): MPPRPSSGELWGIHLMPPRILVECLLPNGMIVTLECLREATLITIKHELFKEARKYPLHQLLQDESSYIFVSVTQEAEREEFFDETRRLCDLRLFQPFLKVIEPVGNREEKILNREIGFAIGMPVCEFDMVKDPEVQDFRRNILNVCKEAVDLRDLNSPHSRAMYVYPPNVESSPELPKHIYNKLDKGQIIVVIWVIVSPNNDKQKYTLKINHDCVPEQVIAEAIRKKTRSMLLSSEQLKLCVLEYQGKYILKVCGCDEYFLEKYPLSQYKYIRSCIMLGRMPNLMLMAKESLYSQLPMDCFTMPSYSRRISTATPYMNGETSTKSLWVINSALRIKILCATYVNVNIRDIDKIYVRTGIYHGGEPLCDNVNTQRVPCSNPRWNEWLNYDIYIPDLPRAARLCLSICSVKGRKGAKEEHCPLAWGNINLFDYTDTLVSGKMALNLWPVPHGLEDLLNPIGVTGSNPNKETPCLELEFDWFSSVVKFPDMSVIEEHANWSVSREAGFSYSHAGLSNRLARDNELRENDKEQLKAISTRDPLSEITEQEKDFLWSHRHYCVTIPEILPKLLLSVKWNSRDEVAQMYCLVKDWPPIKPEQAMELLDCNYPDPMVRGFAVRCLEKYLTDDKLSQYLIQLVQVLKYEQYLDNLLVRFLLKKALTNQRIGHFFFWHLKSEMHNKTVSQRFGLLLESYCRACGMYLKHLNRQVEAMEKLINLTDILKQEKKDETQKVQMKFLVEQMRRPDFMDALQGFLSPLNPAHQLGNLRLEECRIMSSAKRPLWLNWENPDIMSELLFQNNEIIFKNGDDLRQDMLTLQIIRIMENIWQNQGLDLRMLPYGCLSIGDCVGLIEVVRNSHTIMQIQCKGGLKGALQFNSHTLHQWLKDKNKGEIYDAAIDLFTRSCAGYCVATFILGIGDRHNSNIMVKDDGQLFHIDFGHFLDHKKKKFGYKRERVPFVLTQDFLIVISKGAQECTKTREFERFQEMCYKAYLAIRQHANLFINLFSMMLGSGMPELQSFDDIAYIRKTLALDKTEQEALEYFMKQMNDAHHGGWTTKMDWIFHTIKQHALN
T1 sequence (P27986 whole entry partner): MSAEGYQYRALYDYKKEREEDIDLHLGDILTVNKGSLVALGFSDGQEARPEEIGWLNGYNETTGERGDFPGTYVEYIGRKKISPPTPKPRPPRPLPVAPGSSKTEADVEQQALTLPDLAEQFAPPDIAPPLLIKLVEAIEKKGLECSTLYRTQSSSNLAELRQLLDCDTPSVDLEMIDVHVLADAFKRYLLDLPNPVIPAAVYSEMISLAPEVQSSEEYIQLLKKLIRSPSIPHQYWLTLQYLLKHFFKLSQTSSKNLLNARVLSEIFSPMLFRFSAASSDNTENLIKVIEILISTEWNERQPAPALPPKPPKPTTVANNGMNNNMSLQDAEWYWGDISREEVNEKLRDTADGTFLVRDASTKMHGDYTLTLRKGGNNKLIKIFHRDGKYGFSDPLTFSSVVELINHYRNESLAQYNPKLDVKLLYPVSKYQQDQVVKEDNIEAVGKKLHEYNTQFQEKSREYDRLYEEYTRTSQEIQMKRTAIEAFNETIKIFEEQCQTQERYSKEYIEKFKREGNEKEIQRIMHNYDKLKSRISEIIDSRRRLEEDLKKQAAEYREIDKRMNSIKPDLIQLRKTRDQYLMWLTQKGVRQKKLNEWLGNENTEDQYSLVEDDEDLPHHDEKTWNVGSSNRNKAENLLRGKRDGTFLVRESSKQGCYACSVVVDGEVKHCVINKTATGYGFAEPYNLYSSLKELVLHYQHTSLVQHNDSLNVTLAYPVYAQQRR
Experimental: PI3K Alpha Leadseeker SPA Assay
Compounds of the present invention were tested according to the following assays and found as inhibitors of PI3 kinases, particularly PI3Kα. The activities (IC50) range from 1 nM to 500 μM against PI3Kα.
SPA imaging beads are microspheres containing scintillant which emit light in the red region of the visible spectrum. As a result, these beads are ideally suited to use with a CCD imager such as the Viewlux. The Leadseeker beads used in this system are polystyrene beads that have been coupled with polyethyleneimine. When added to the assay mixture, the beads absorb both the substrate (PIP2) and product (PIP3). Adsorbed P^33-PIP3 will cause an increase in signal, measured as ADUs (analog to digital units). This protocol details the use of the PEI-PS Leadseeker beads for assays using His-p110/p85 PI3K alpha.
Solid compounds are typically plated with 0.1 μl of 100% DMSO in all wells (except column 6 and 18) of a 384-well, flat bottom, low volume plate (Greiner 784075). The compounds are serially diluted (3-fold in 100% DMSO) across the plate from column 1 to column 12 and column 13 to column 24 and leave column 6 and 18 containing only DMSO to yield 11 concentrations for each test compound. […] The signal is determined using a Viewlux detector and is then imported into curve fitting software (Activity Base) for construction of concentration response curves. […]

Chain of CK2 protein kinase (P68400 whole entry): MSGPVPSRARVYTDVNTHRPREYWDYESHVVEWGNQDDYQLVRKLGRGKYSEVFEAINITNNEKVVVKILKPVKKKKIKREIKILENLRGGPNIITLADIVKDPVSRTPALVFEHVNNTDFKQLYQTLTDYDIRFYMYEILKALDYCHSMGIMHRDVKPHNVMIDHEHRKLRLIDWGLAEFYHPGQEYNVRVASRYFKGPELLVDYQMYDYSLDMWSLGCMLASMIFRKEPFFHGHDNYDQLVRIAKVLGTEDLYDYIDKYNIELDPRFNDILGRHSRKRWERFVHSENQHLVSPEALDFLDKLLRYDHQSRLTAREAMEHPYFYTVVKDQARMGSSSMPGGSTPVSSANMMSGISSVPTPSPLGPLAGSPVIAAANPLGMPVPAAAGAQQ

COC[C@H]1OC(=O)c2coc3c2[C@@]1(C)C1=C(C3=O)[C@@H]2CCC(=O)[C@@]2(C)C[C@H]1OC(C)=O [wortmannin]
IC50 (Class I PI3-kinases; read-out: IC50 values against each of the various Class I PI3-kinases): 1 to 10 nM

O=c1cc(N2CCOCC2)oc2c(-c3ccccc3)cccc12 [LY294002]
IC50 (Class I PI3-kinases; read-out: IC50 values against each of these PI3-kinases): 15000 to 20000 nM | IC50 (CK2 protein kinase): 5000 to 10000 nM

O=C1NC(=O)/C(=C/c2ccc3nccc(-c4ccncc4)c3c2)S1 [Example 1, (5Z)-5-{[4-(4-pyridinyl)-6-quinolinyl]methylidene}-1,3-thiazolidine-2,4-dione]
IC50 (PI3Kα): 1 nM
